Source: patent US20200315981A1, “COMPOSITIONS AND METHODS FOR NANOPARTICLE-BASED DRUG DELIVERY AND IMAGING” (Memorial Sloan Kettering Cancer Center, priority 2015, published 2020)
Read-outs that look alike come from different tables or passages of the source.

Tested on: human prostatic adenocarcinoma cell line PC3
Assay: Cell viability studies, PC3
Type: cell-based
Conditions: PC-3, PC3 cells
Source text: Subsequently, the dextran nanophores therapeutic potential in vitro and in vivo was investigated. […] This drug combination was selected, because it was previously reported that inhibition of the androgen receptor pathway leads to overactivation of the PI3K cascade, while suppression of PI3K upregulates androgen-receptor-mediated signaling. […] Doxorubicin and the MEK inhibitor AZD6244 (Selumetinib®) was co-loaded into dextran nanophores, since MEK is a downstream target of EGFR.

IC50 (FIG. 6, read-out: IC50): 6.5 µM | IC50 (FIG. 9D, read-out: doxorubicin concentration causing 50% reduction in the viability of PC3 cells): 8 µM
SMILES: COc1cccc2c1C(=O)c1c(O)c3c(c(O)c1C2=O)C[C@@](O)(C(=O)CO)C[C@@H]3O[C@H]1C[C@H](N)[C@H](O)[C@H](C)O1 [doxorubicin]
